Experimental findings from ChEMBL document CHEMBL2429761, “Discovery of ML314, a Brain Penetrant Non-Peptidic β-Arrestin Biased Agonist of the Neurotensin NTR1 Receptor” (ACS Med Chem Lett, 2013) are described below.

Each structure is given as a SMILES string. pEC50, pIC50: −log10 of the molar value.

For test [1], the target named is Neurotensin receptor type 2 (Homo sapiens, UniProt O95665). Description: Agonist activity at NTR2 (unknown origin) expressed in human U2OS cells coexpressing beta-arrestin by GFP reporter gene assay. The class given is cell-based.
Sequence of Neurotensin receptor type 2 (O95665 whole entry): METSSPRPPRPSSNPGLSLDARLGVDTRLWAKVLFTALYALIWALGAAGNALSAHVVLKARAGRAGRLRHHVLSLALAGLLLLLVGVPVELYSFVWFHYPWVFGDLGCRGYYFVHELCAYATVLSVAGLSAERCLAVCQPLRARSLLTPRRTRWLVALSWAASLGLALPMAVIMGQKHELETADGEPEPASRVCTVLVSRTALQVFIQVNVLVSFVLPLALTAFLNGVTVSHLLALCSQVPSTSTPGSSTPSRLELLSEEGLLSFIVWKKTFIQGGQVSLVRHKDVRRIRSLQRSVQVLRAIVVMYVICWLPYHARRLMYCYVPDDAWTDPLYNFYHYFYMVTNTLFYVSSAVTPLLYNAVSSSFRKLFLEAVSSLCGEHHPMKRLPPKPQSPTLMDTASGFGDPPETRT
The target of test [2] is T1, Neurotensin receptor type 1 (Homo sapiens, UniProt P30989). The experiment in a line: Agonist activity at NTR1 (unknown origin) expressed in human U2OS cells coexpressing beta-arrestin by GFP reporter gene assay. The format is cell-based. On the technique in general: A reporter such as luciferase makes a cellular process visible.
T1 sequence (P30989 whole entry): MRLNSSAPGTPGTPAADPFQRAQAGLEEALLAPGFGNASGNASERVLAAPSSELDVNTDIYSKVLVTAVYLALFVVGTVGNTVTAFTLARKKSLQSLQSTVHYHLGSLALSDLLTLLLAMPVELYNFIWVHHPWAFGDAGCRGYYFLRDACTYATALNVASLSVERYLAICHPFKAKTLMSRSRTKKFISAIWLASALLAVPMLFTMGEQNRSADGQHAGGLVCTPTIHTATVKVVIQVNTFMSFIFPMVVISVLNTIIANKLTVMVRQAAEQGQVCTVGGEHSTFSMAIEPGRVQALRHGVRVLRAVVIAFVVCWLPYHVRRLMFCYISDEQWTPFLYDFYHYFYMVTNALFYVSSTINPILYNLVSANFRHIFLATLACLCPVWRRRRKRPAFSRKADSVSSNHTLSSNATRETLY
The target in test [3] is G-protein coupled receptor 35 (Homo sapiens, UniProt Q9HC97). Description: Agonist activity at GPR35 (unknown origin) expressed in human U2OS cells coexpressing beta-arrestin by GFP reporter gene assay. The class given is cell-based.
Sequence of G-protein coupled receptor 35 (Q9HC97 whole entry): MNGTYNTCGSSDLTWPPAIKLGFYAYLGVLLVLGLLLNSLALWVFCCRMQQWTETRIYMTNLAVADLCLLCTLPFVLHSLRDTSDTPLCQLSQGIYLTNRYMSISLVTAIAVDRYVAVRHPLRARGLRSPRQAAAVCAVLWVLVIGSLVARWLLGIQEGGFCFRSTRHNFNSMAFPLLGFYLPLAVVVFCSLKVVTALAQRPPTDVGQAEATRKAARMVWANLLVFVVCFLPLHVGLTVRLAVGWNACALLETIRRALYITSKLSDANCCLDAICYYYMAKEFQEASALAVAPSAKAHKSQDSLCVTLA
For test [4], the target named is T1, Neurotensin receptor type 1. Description: Agonist activity at NTR1 (unknown origin) expressed in CHOK1 cells by beta-arrestin assay. The format is cell-based, CHO-K1.
The target is the same in test [5]. Description: Agonist activity at NTR1 (unknown origin) expressed in CHO cells assessed as stimulation of calcium flux relative to neurotensin (8 to 13). The class given is functional, cell-based. On the technique in general: A change in cytosolic calcium serves as a functional read-out for many receptors and channels.
For test [6] the target is unchanged.
Description: Displacement of [125I]-neurotensin from NTR1 in HUVEC after 1 hr by gamma counting analysis
The target is the same in test [7]. Description: Antagonist activity at NTR1 (unknown origin) expressed in human U2OS cells coexpressing beta-arrestin assessed as inhibition of ML314-induced effect by GFP reporter gene assay.

Regarding `COc1cc2nc(-c3ccccc3)nc(N3CCN(c4ccccc4)CC3)c2cc1OC`, the results for the negative-log EC50 (pEC50) in test [1], in test [2] and in test [3] were less than 4.10, less than 4.10 and less than 4.40, respectively.
Consider `COc1cc2nc(C3CC3)nc(N3CCN(S(=O)(=O)c4ccccc4)CC3)c2cc1OC`, for which the negative logarithm of the EC50 (pEC50) was less than 4.10 in test [1], less than 4.10 in test [2] and less than 4.40 in test [3].
With `COc1cc2nc(C3CCCC3)nc(N3CCN(c4ccccc4OC)CC3)c2cc1OC`, the pEC50 in test [1] is less than 4.10; in test [3], less than 4.40.
For `COc1cc2nc(C3CCC3)nc(N3CCN(c4ccccc4C)CC3)c2cc1OC`, the negative-log EC50 (pEC50) in test [1] is less than 4.10; in test [3], less than 4.40.
Consider `COc1cc2nc(C3CC3)nc(N3CCN(c4ccccc4Cl)CC3)c2cc1OC`, for which the pEC50 in test [1] is less than 4.10; in test [3], less than 4.40.
For `COc1cc2nc(C3CC3)nc(N3CCN(C(=O)c4ccccc4)CC3)c2cc1OC`, in that order: less than 4.10 and less than 4.40.
On to `CCOc1ccccc1N1CCN(c2nc(C3CC3)nc3cc(OC)c(OC)cc23)CC1`, for which the negative logarithm of the EC50 (pEC50) in test [1] is less than 4.10; in test [3], less than 4.40.
For `COc1cc2nc(C3CCC3)nc(N3CCN(c4ccccc4OC)CC3)c2cc1OC`, in that order: less than 4.10 and less than 4.40.
For the compound `CCOc1cc2c(N3CCN(c4ccccc4[N+](=O)[O-])CC3)nc(-c3ccccc3)nc2cc1OC`, the results for the pEC50 in test [1], in test [2] and in test [3] were less than 4.10, 4.12 and less than 4.40, respectively.
In the case of `COc1ccc2nc(C3CC3)nc(N3CCN(c4ccccc4OC)CC3)c2c1`, the pEC50 is less than 4.10 in test [1] and less than 4.40 in test [3].
Consider `CCOc1cc2c(N3CCN(c4ccccc4F)CC3)nc(-c3ccccc3)nc2cc1OC`, for which the figures for the negative logarithm of the EC50 (pEC50) in test [1], in test [2] and in test [3] were less than 4.10, less than 4.10 and less than 4.40, respectively.
For the compound `CCOc1cc2c(N3CCN(c4ccccc4)CC3)nc(-c3ccccc3)nc2cc1OC`, the pEC50 in test [1] was less than 4.10; in test [2], less than 4.10; in test [3], less than 4.40.
For the compound `COc1ccccc1N1CCN(c2nc(C3CCC3)nc3ccccc23)CC1`, the negative logarithm of the EC50 (pEC50) in test [1] is less than 4.10; in test [2], 4.64; in test [3] it was less than 4.40.
Take `COc1cc2nc(C3CC3)nc(N3CCN(Cc4ccc(C)cc4)CC3)c2cc1OC`: the pEC50 in test [1] is less than 4.10; in test [3] it was less than 4.40.
Consider `COc1cc2nc(C3CCC3)nc(N3CCN(c4ccccn4)CC3)c2cc1OC`, for which the negative-log EC50 (pEC50) was less than 4.10 in test [1], 4.59 in test [2] and less than 4.40 in test [3].
In the case of `COc1cc2nc(CC(C)C)nc(N3CCN(c4ccccc4OC)CC3)c2cc1OC`, the pEC50 in test [1] is less than 4.10; in test [3], less than 4.40.
Turning to `COc1ccc2nc(C3CCC3)nc(N3CCN(c4ccccc4OC)CC3)c2c1`, the negative logarithm of the EC50 (pEC50) in test [1] was less than 4.10; in test [3] it was less than 4.40.
With `COc1cc2nc(CC3CC3)nc(N3CCN(c4ccccc4OC)CC3)c2cc1OC`, the pEC50 in test [1] is less than 4.10; in test [2], 4.85; in test [3], less than 4.40.
The matching figures for `COc1cc2nc(CCN(C)C)nc(N3CCN(c4ccccc4OC)CC3)c2cc1OC`: less than 4.10, less than 4.10 and less than 4.40.
As for `COc1cc2nc(-c3ccccc3)nc(N3CCN(c4ccccc4OC)CC3)c2cc1OC`, the pEC50 was less than 4.10 in test [1] and less than 4.40 in test [3].
`COc1cc2nc(C3CC3)nc(N3CCNCC3)c2cc1OC`: the negative-log EC50 (pEC50) in test [1] was less than 4.10; in test [2], less than 4.10; in test [3], less than 4.40.
Consider `COc1ccccc1CN1CCN(c2nc(C3CC3)nc3cc(OC)c(OC)cc23)CC1`, for which the pEC50 in test [1] is less than 4.10; in test [3], less than 4.40.
Regarding `CCCc1nc(N2CCN(c3ccccc3OC)CC2)c2cc(OC)c(OC)cc2n1`, the negative-log EC50 (pEC50) in test [1] was less than 4.10; in test [2], 4.77; in test [3] it was less than 4.40.
For the compound `CCOc1cc2c(N3CCN(c4ccccc4OC)CC3)nc(-c3ccccc3)nc2cc1OC`, the values for the negative-log EC50 (pEC50) in test [1], in test [2] and in test [3] were less than 4.10, less than 4.10 and less than 4.40, respectively.
Take `COc1cc2nc(C(C)C)nc(N3CCN(c4ccccc4OC)CC3)c2cc1OC`: the pEC50 was less than 4.10 in test [1], 5.10 in test [2] and less than 4.40 in test [3].
As to `COc1cccc(OC)c1-c1cc(C(=O)N[C@@H](CC(C)C)C(=O)O)nn1-c1ccnc2cc(Cl)ccc12`, the pEC50 in test [4] is less than 4.48; in test [2] it was 6.12. Also, the maximum response (Emax) in test [5] stood at 63%.
Consider `COc1cc2nc(C3CCC3)nc(N3CCN(c4ccccc4)CC3)c2cc1OC`, for which the figures for the pEC50 in test [1], in test [2] and in test [3] were less than 4.10, 4.92 and less than 4.40, respectively.
`COc1cc2nc(C3CCC3)nc(N3CCN(c4ccccc4Cl)CC3)c2cc1OC`: the results for the negative-log EC50 (pEC50) in test [1], in test [2] and in test [3] were less than 4.10, 4.92 and less than 4.40, respectively.
As for `COc1cc2nc(-c3ccccc3)nc(N3CCN(c4ccc(F)cc4)CC3)c2cc1OC`, the negative-log EC50 (pEC50) in test [1] is less than 4.10; in test [3], less than 4.40.
For `COc1ccccc1N1CCN(c2nc(C3CCC3)nc3cc4c(cc23)OCO4)CC1`, the values for the negative-log EC50 (pEC50) in test [1] and in test [3] were less than 4.10 and less than 4.40, respectively.
For the compound `COc1cc2nc(Cc3ccccc3)nc(N3CCN(c4ccccc4OC)CC3)c2cc1OC`, the figures for the pEC50 in test [1], in test [2] and in test [3] were less than 4.10, 4.85 and less than 4.40, respectively.
In the case of `COc1cc2nc(-c3ccccc3)nc(N3CCN(c4ccccc4Cl)CC3)c2cc1OC`, the negative logarithm of the EC50 (pEC50) in test [1] is less than 4.10; in test [2], less than 4.10; in test [3], less than 4.40.
As for `COc1cc2nc(C3CC3)nc(N3CCN(C(=O)c4ccccc4OC)CC3)c2cc1OC`, the results for the pEC50 in test [1] and in test [3] were less than 4.10 and less than 4.40, respectively.
On to `C=Cc1nc(N2CCN(c3ccccc3OC)CC2)c2cc(OC)c(OC)cc2n1`, for which the negative logarithm of the EC50 (pEC50) in test [1] was less than 4.10; in test [3], less than 4.40.
Turning to `COc1cc2nc(CCN3CCN(c4ccccc4OC)CC3)nc(N3CCN(c4ccccc4OC)CC3)c2cc1OC`, the values for the negative-log EC50 (pEC50) in test [1] and in test [3] were less than 4.10 and less than 4.40, respectively.
In the case of `COc1cc2nc(-c3ccccc3)nc(N3CCN(c4ccccc4F)CC3)c2cc1OC`, the negative-log EC50 (pEC50) in test [1] was less than 4.10; in test [2], less than 4.10; in test [3], less than 4.40.
Consider `COc1cccc(OC)c1-c1cc(C(=O)NC2(C(=O)O)C3CC4CC(C3)CC2C4)nn1-c1ccc(C(=O)N(C)CCCN(C)C)cc1C(C)C` (stereo unspecified), for which the negative-log IC50 (pIC50) in test [6] was 9.62; in test [7] it was 7.30.
On to `CCc1nc(N2CCN(c3ccccc3OC)CC2)c2cc(OC)c(OC)cc2n1`, for which the figures for the negative logarithm of the EC50 (pEC50) in test [1] and in test [3] were less than 4.10 and less than 4.40, respectively.
In the case of `COc1cc2nc(C3CCC3)nc(N3CCN(c4ccccc4F)CC3)c2cc1OC`, the negative-log EC50 (pEC50) in test [1] was less than 4.10; in test [2], 4.74; in test [3] it was less than 4.40.
Take `COc1ccc2c(N3CCN(c4ccccc4OC)CC3)nc(C3CCC3)nc2c1`: the negative-log EC50 (pEC50) is less than 4.10 in test [1] and less than 4.40 in test [3].
Turning to `COc1cc2ncnc(N3CCN(c4ccccc4OC)CC3)c2cc1OC`, the pEC50 was less than 4.10 in test [1], less than 4.10 in test [2] and less than 4.40 in test [3].
`COc1cc2nc(C)nc(N3CCN(c4ccccc4OC)CC3)c2cc1OC`: the pEC50 in test [1] is less than 4.10; in test [2], less than 4.10; in test [3], less than 4.40.

The term pEC50 denotes −log10 of the EC50, conventionally taken in molar units. Low readings indicate a high EC50, high ones a low EC50. By Emax is commonly meant the maximal effect, on the per cent scale that the assay sets. Usually pIC50 stands for the IC50 on a negative log10 scale, so that one unit is a factor of ten.
